This note sets out measurements from patent publication US8828984B2, “Gold(III) complexes containing N-heterocyclic carbene ligand, synthesis, and their applications in cancer treatment and thiol detection” (University of Hong Kong, priority 2012, dated 2014).

Some results are limits rather than exact numbers.

One data set concerns melanoma (B 16). The data set can be described thus: MTT cytotoxicity assay, B16. Format: cell-based, mouse. Particulars: 72 h. The procedure: (§1) Example 2 describes the in vitro cytotoxicity, which is indicative of the induction of cell death and/or inhibition of cellular proliferation of cancer cells, of the Au(III)-NHC complexes on cervical epithelioid carcinoma, hepatocellular carcinoma, leukemia, nasopharyngeal carcinoma, breast carcinoma, melanoma, and lung carcinoma.
(§2) By means of MTT assays, the cytotoxic properties of 1-11 were determined toward some established human cancer cell lines including hepatocellular carcinoma (HepG2), cervical epithelioid carcinoma (HeLa), lung carcinoma (NCI-H460), breast cancer (MCF-7), melanoma (B 16) and nasopharyngeal carcinoma (SUNE1).

Data set [1] deals with cervical epithelioid carcinoma (HeLa). The data set can be described thus: MTT cytotoxicity assay, HeLa. Type of data set: cell-based, human. Particulars: dose required to inhibit 50% cellular growth for 72 h. The method, then: as §1, §2
Background: Tetrazolium dyes change colour on reduction, which living cells bring about.

Data set [2] has as its system hepatocellular carcinoma (HepG2). The experiment in a line: MTT cytotoxicity assay, HepG2. Format: cell-based, human. To be noted: 72 h. The method, then:
as §1, §2

Data set [3] deals with lung carcinoma (NCI-H460). The data set can be described thus: MTT cytotoxicity assay, NCI-H460. Particulars: 72 h. Format: cell-based, human. The method, then: as §1, §2
In another data set the test system is breast cancer (MCF-7). The data set can be described thus: MTT cytotoxicity assay, MCF-7. Type of data set: cell-based, human. To be noted: 72 h. The method, then:
as §1, §2

In data set [4] the test system is nasopharyngeal carcinoma (SUNE1). The experiment in a line: MTT cytotoxicity assay, SUNE1. Type of data set: cell-based, human. To be noted: 72 h. The procedure: as §1, §2
The test system of data set [5] is Thioredoxin reductase (TrxR). To be noted: HeLa cells incubated for 1 h; compared with auranofin.
Procedure: Cell-based TrxR activity experiment was incorporated in our experiments. […] The cell lysates (10 μg proteins) were added to a buffer (100 μL) containing 100 mM potassium phosphate, pH 7.4, 1 mM EDTA and 0.2 mM NADPH. Reaction was initiated by adding 5,5′-dithiobis(2-nitrobenzoic acid) (DTNB, 3 mM final) and the TrxR activities were determined as increases in O.D. 410 nm in 10 min.
In the next data set the test system is HeLa cells. The data set can be described thus: Fluorescence microscopic examination of HeLa cells. Particulars: 20 μM, 10 min, ex 340 nm. Format: cell-based, human. The method, then:
Fluorescence microscopic examination 9: HeLa cells (1×10^5 cells) were seeded in a one chamber slide (Nalgene; Nunc) with culture medium (2 mLwell^−1) and incubated at 37° C. in a humidified atmosphere of 5% CO2/95% air for 24 h. After treating with 9 (20 μM, 1 mL) for 10 min, cells were directly exposed for fluorescent imaging without removing the old medium. The bright-field and fluorescent images (ex: 340 nm) were examined in Axiovert 200 (Carl Zeiss) and in an Axio Vision Rel. 4.5 imaging system (Carl Zeiss).

Another data set deals with PARP, caspase 3, 7 and 9. The experiment in a line: Western blotting of apoptosis related proteins in HeLa cells. Particulars: 15 μM, 48 h. Type of data set: cell-based, human. The procedure: Meanwhile, considerable attention has been paid on apoptosis for which can lead cancer cell death. After treating HeLa cells with 15 μM of complex 9 for 48 h, apoptosis related PARP, caspase 3, 7 and 9 were activated according to western blotting results (FIG. 4b).
On the technique in general: In western blotting, separated proteins are transferred to a membrane and probed.

In another data set the test system is HeLa xenograft. The experiment in a line: In vivo tumor inhibition, mice bearing HeLa xenograft. Particulars: 3 mg/kg, nude mice bearing HeLa xenograft.
Data set [6] can be described thus: Preliminary toxicity experiment in mice. Format: in vivo.

Procedure for HeLa xenograft: Female BALB/cAnN-nu (Nude), 5-7 weeks old, were purchased from the Charles River Laboratories (Wilmington, Mass.) and cared for according to the guidelines of the Laboratory Animal Unit of the University of Hong Kong (HKU). All animal experiments were conducted under the guidelines approved by the Committee on the Use of Live Animals in Teaching and Research of HKU. To establish the HeLa xenograft model, 4×10^6 HeLa cells suspended in 100 μl of PBS were inoculated into the back flanks of female BALB/cAnN-nu (Nude) mice by subcutaneous injection. When the tumor volumes reached about 50 mm^3 (4 days after tumor inoculation), the mice were randomly divided into different treatment groups (3 mg/kg of 5 or solvent control). Complex 5 was reconstituted in PET diluent (60% polyethylene glycol 400, 30% ethanol, 10% Tween 80). Complex 5 dissolved in PET diluent and then diluted in PBS or PBS supplemented with equal amount of PET were injected into the mice by intratumoral injection once every three days until the mice were sacrificed. In this model, the volume of PET diluent injected into each mouse was ≦6 μl. Tumor sizes were measured once every 3 times a week, and tumor volume (V) was calculated by the formula V=ab^2×0.52, where a and b were the longest and the shortest diameters of the xenografted tumor. The tumor inhibition was calculated according to the following formula: Inhibition percentage=[1−(V−V0)/(V′−V0′)]×100% where V and V′ are the tumor volumes of 5 treatment and solvent control, respectively. V0 and V0′ are the initial tumor volumes of the 5 treatment and solvent control, respectively.

As usually defined, the IC50 is the concentration that gives 50% inhibition. The low end stands for inhibition by little substance, the high end for a need for much substance. As for `CCCCCCCCn1cc[n+](C)[c]1[Au-]12[n]3ccnc3-c3cccc([n+]31)-c1ncc[n]12.O=S(=O)([O-])C(F)(F)F` [Complex 3], the IC50 in the data set with melanoma (B 16) turned out to be 3.8 ± 0.1 µM; in data set [1] it was 14 ± 0.3 µM; in data set [2] it was 14.7 ± 1.5 µM; in data set [3] it was 17.3 ± 0.3 µM; in the data set on breast cancer (MCF-7), 8.5 ± 0.2 µM; in data set [4], 8.9 ± 0.6 µM.

Consider `C[n+]1ccn(CCC[P+](c2ccccc2)(c2ccccc2)c2ccccc2)[c]1[Au-]12[n]3ccnc3-c3cccc([n+]31)-c1ncc[n]12.O=S(=O)([O-])C(F)(F)F.O=S(=O)([O-])C(F)(F)F` [Complex 8], for which the IC50 stood at 36.8 ± 0.9 µM with melanoma (B 16); 77.4 ± 1.8 µM in data set [1]; 65.4 ± 1.1 µM in data set [3]; 49.7 ± 3 µM in the data set with breast cancer (MCF-7); 47.3 ± 6.2 µM in [4].

Take `Cn1cc[n+](C)[c]1[Au-]12[n]3ccnc3-c3cccc([n+]31)-c1ncc[n]12.O=S(=O)([O-])C(F)(F)F` [Complex 1]: the IC50 is 30.6 ± 0.3 µM in the data set on melanoma (B 16); 32.9 ± 1.3 µM in data set [1]; 36.2 ± 2.2 µM in data set [2]; 55 ± 8.5 µM in data set [3]; 18.4 ± 0.3 µM in the data set with breast cancer (MCF-7); 28.7 ± 7.3 µM in data set [4]. The “Inhibition of cell-based TrxR activity” value in data set [5] is listed as “can inhibit cell-based TrxR activity similarly to auranofin”.

Regarding `CCCCn1cc[n+](CCCC)[c]1[Au-]12[n]3c(nc4ccccc43)-c3cccc([n+]31)-c1nc3ccccc3[n]12.O=S(=O)([O-])C(F)(F)F` [Complex 10], the IC50 in the data set on melanoma (B 16) is 5.2 ± 0.2 µM; in data set [1], 9.2 ± 0.4 µM; in [2], 14.7 ± 1.1 µM; in [3], 5.5 ± 0.3 µM; in the data set on breast cancer (MCF-7) it was 8.7 ± 0.2 µM; in data set [4], 5.2 ± 1.6 µM.

As for `Cn1cc[n+](C)[c]1[Au-]12[n]3c(nc4ccccc43)-c3cccc([n+]31)-c1nc3ccccc3[n]12.O=S(=O)([O-])C(F)(F)F` [Complex 9], the IC50 worked out at 12.4 ± 0.1 µM in the data set with melanoma (B 16); 14.4 µM in data set [1]; 18 ± 0.5 µM in data set [2]; 11.2 ± 0.7 µM in data set [3]; 11.9 ± 1 µM in the data set with breast cancer (MCF-7); 11.2 ± 0.6 µM in [4]. Further, the “Cellular fluorescence (localisation)” value in the data set with HeLa cells is “significant blue fluorescence was detected in cytoplasm but not in nucleus or extracellular environment”. The “Activation of apoptosis related PARP, caspase 3, 7 and 9 (western blotting)” value in the data set on PARP, caspase 3, 7 and 9 was “activated”. Besides, the “Inhibition of cell-based TrxR activity” value in data set [5] is “can inhibit cell-based TrxR activity similarly to auranofin”.

Consider `CCCCCCCCCCCCCCCCn1cc[n+](C)[c]1[Au-]12[n]3ccnc3-c3cccc([n+]31)-c1ncc[n]12.O=S(=O)([O-])C(F)(F)F` [Complex 5], for which the IC50 with melanoma (B 16) is 2.2 ± 0.1 µM; in data set [1] it was 1.4 ± 0.2 µM; in data set [2], 3.3 ± 0.5 µM; in data set [3], 1.4 ± 0.1 µM; in the data set with breast cancer (MCF-7), 2.9 ± 0.2 µM; in data set [4], 28.6 ± 0.3 µM. For the same compound, the “Tumor inhibition after 11 days” value in the data set on HeLa xenograft (intratumoral injection once every three days, 11 days (p<0.05)) is recorded as “up to 60%”. Moreover, the “Tumor inhibition after 14 days” value in the data set on HeLa xenograft (intratumoral injection once every three days, 14 days (p<0.01)) was no more than 76%. Also, the “Mouse death / mouse body weight loss during treatment” value in the data set with HeLa xenograft (intratumoral) is listed as “No mouse death or mouse body weight loss was found”. In data set [6] (7 mg/kg), the “Toxicity to mice at 7 mg/kg (body weight)” value is given as “slight drop of body weight”. In addition, in [6] (20 mg/kg), the “Toxicity to mice at 20 mg/kg” value is “toxic to mice”.

Regarding `CCCCCCn1cc[n+](CCCCCC)[c]1[Au-]12[n]3c(nc4ccccc43)-c3cccc([n+]31)-c1nc3ccccc3[n]12.O=S(=O)([O-])C(F)(F)F` [Complex 11], the IC50 in the data set on melanoma (B 16) amounted to 5.5 ± 0.1 µM; in [1], 8.4 ± 0.1 µM; in data set [2], 2.6 ± 0.4 µM; in data set [3], 5 ± 0.1 µM; with breast cancer (MCF-7), 4 ± 0.1 µM; in data set [4] it was 3.1 ± 0.3 µM.

Take `CCCCCCCCCCn1cc[n+](C)[c]1[Au-]12[n]3ccnc3-c3cccc([n+]31)-c1ncc[n]12.O=S(=O)([O-])C(F)(F)F` [Complex 4]: the IC50 with melanoma (B 16) was found to be 1.6 ± 0.1 µM; in data set [1], 8.2 µM; in [2], 11.8 ± 1.2 µM; in [3], 9.7 ± 0.4 µM; in the data set on breast cancer (MCF-7), 6.5 ± 0.5 µM; in data set [4] it was 5.5 ± 0.3 µM.

Consider `CCCCCCn1cc[n+](CCCCCC)[c]1[Au-]12[n]3ccnc3-c3cccc([n+]31)-c1ncc[n]12.O=S(=O)([O-])C(F)(F)F` [Complex 7], for which the IC50 in the data set with melanoma (B 16) turned out to be 7.7 ± 1 µM; in data set [1] it was 8.2 µM; in [2], 9.1 ± 0.3 µM; in data set [3], 34.6 ± 3.1 µM; in the data set with breast cancer (MCF-7), 8.6 ± 0.1 µM; in data set [4] it was 36.8 ± 1.6 µM.

Regarding `CCCCn1cc[n+](CCCC)[c]1[Au-]12[n]3ccnc3-c3cccc([n+]31)-c1ncc[n]12.O=S(=O)([O-])C(F)(F)F` [Complex 6], the half-inhibitory concentration (IC50) in the data set with melanoma (B 16) worked out at 8.3 ± 0.2 µM; in data set [1], 13 ± 1.6 µM; in [2], 28.7 ± 5.9 µM; in data set [3], 7.9 ± 1.1 µM; with breast cancer (MCF-7) it was 12.9 ± 2 µM; in data set [4], 9.9 ± 0.2 µM.
